PMC3820480 (Nature, 2013)

Experiments:
GCGR = details: antagonist to glucagon; no reference given; cited from earlier work
[1] = system: GCGR mutants of Trp295 and Asn298; assay: Whole-cell glucagon binding assay, ECL2 mutants Trp295 and Asn298; design: species or system human; details: CHO-K1 cells, 40 pM 125I-glucagon, room temperature, 3 h

Q: Which mode of antagonism (GCGR) does the source give for `CS(=O)(=O)c1cccc(NC(=O)N(Cc2ccc(C(=O)Nc3nn[nH]n3)cc2)c2ccc(C3CCCCC3)cc2)c1` [NNC0640] here?
A: Its mode of antagonism is “competitive antagonist to glucagon”.

Q: With “glucagon: 29 amino acid hormonal peptide, glucagon (Supplementary Fig. 1a)” as the molecule, how does the “effect of mutation of ECL2 residues on ligand binding” value [1] read?
A: The value was “strongly affects ligand binding”.
